Results as given in the OPERA property sets (Mansouri et al. 2018).
Peptide text beside a SMILES is read from it. * marks the point of attachment. Boc = CC(C)(C)OC(=O)*

Structure (SMILES) | logP
CN(C)CC/C=C1\c2ccccc2CSc2ccccc21 | 4.49
CN[C@H]1CCc2cc(OC)c(OC)c(OC)c2-c2ccc(OC)c(=O)cc21 | 1.37
Nc1cc(N2CCCCC2)nc(N)[n+]1[O-] | 1.24
CCOCc1ccccc1NC(=O)OCCN1CCCCC1 | 2.72
S=C=Nc1ccc(-c2ccccc2)cc1 | 4.66
C#CCC(O)c1cccnc1 (centres undefined) | 1.21
CN(C)C(N(C)C)=S(I)c1ccccc1Br (centres undefined) | 0.06
COCCCc1ccccc1 | 2.7
NCc1cccnc1 | -0.32
N#Cc1ccc2cc[nH]c2c1 | 2.38
NC(=O)c1ccccc1O | 1.28
O=NN1CCCC(O)C1 (centres undefined) | -0.47
Cc1ccc(C)cc1 | 3.15
N#CCNc1ccccc1C(N)=O | 0.5
CCCCCC(C)O (centres undefined) | 2.31
CC1CC2OC(=O)C3(C)C2C(OC3(C)O)C2(C)C(=O)C=CC12 (centres undefined) | 0.3
c1cnc2c(c1)ccc1cccnc12 | 1.78
BrCCc1ccccc1 | 3.09
COc1ccc(N)cc1Cl | 1.85
COCC(c1c(O)c2ccccc2oc1=O)c1c(O)c2ccccc2oc1=O | 1.38
CS(=O)(=O)c1ccc(C(O)C(CO)NC(=O)C(Cl)Cl)cc1 (centres undefined) | -0.27
CN1CCC=C1c1cccnc1 | 1.13
NNC(=O)c1ccnc(N)c1 | -0.98
CC1OC(OC2CCC3(CO)C4CCC5(C)C(C6=CC(=O)OC6)CCC5(O)C4CCC3(O)C2)C(O)C(O)C1O (centres undefined) | -0.62

Structure (SMILES) | logP
C=CC(=O)c1ccccc1 | 1.88
CCc1ccc(S(I)=C(N(C)C)N(C)C)cc1 (centres undefined) | 0.29
CCCCCCCc1nn[nH]n1 | 2.01
CN(C)C(CSS(=O)(=O)c1ccccc1)CSS(=O)(=O)c1ccccc1 | 3.36
CN(C)C(N(C)C)=S(I)c1c(Cl)cc(Cl)cc1Cl (centres undefined) | 0.05
NC(=O)c1cnccn1 | -0.6
C=CCC1(CC(=C)Br)C(=O)NC(=O)N(C)C1=O (centres undefined) | 1.78
O=[N+]([O-])c1cccc(C(F)(F)F)c1 | 2.62
CCCCCCOC(=O)C(CC)C(CO)Cc1cncn1C (centres undefined) | 2.71
COc1cccc(C(=O)O)c1O | 1.94
Brc1ccc(Br)cc1 | 3.79
CC(=O)NCC(=O)N[C@@H](CC(C)C)C(N)=O | -0.78
CCN1CC(C(O)C(CC2CCCCC2)NC(=O)C(Cc2cnc[nH]2)NC(=O)C(CC(=O)N(C)CCO)Cc2ccccc2)OC1=O (centres undefined) | 1.94
CC(C)N(N=Nc1ccc(C(N)=O)cc1)C(C)C | 3
Cn1cccc1C=NNC(=S)Nc1ccccc1 | 3.64
CCOC(=O)C=Cc1ccc(O)c(O)c1 | 2.56
NC(=O)c1ccc(Cl)cc1 | 1.55
CC(C)(C)C1(O)CCN2CC3c4ccccc4CCc4cccc(c43)C2C1 (centres undefined) | 5.2
O=C(NC(CO)C(O)c1ccc([N+](=O)[O-])cc1)C(Br)(Br)Br (centres undefined) | 2.17
COC(=O)c1ccc(-c2ncc([N+](=O)[O-])n2C)cc1 | 1.63
CCC(c1ccccc1)c1c(O)c2ccccc2oc1=O (centres undefined) | 3.62
CCS(=O)(=O)CCn1c([N+](=O)[O-])cnc1C | -0.35
CNCC(F)(F)F | 0.55
CC(C)C(NC(=O)C(Cc1ccccc1)NC(=O)OC(C)(C)C)C(=O)O (stereo not drawn) (Boc-Phe-Val-OH; configuration not given here) | 2.88

Structure (SMILES) | logP
CCCC1CCCc2ncc(C(=O)OC)c(=O)n21 (centres undefined) | 1.14
O=[N+]([O-])c1cccc2cc[nH]c12 | 2.63
OC(c1ccccc1)(C(F)(F)F)C(F)(F)F | 3.41
CC(=O)Oc1ccc(C)cc1 | 2.11
CN | -0.57
Cn1cc[nH]c1=S | -0.34
Cc1cccc2cccnc12 | 2.6
CC(C)(Oc1ccc(Cl)cc1)C(=O)O | 2.57
Nc1nccs1 | 0.38
O=C1NCN(c2ccccc2)C12CCN(CCCC(c1ccc(F)cc1)c1ccc(F)cc1)CC2 | 5.86
CCCCCC(=O)NN | 0.48
CN(C)c1ccc(N=Nc2ccccc2)cc1 | 4.58
CCC(=O)C1(c2cccc(OC(=O)c3ccccc3)c2)CCN(C)CC1 | 3.03
O=C1C=C(NCCO)C(=O)c2ccccc21 | 1.23
O=C(C(=O)c1ccccc1)c1ccccc1 | 3.38
Oc1ccc(Cc2ccc(O)cc2)cc1 | 2.91
CCSC(=O)N1CCCCCC1 | 3.21
CC(=O)c1ccc(S(I)=C(N(C)C)N(C)C)cc1 (centres undefined) | -0.85
COc1ccc(NC(=O)N(C)C)cc1Cl | 1.64
CN(C)C(=O)c1ccco1 | 0.41
CCc1ccccc1OC(=O)NC | 1.93
CC(=O)Oc1ccccc1 | 1.49
C=C=C | 1.45
Cc1cccc2cc[nH]c12 | 2.56

Structure (SMILES) | logP
O=[N+]([O-])c1ccc2[nH]ccc2c1 | 2.53
O=S(=O)(Cc1ccccc1)c1ccccc1 | 2.05
FC(F)(F)c1nc2ccccc2[nH]1 | 2.67
CCCCOC | 1.66
CN(c1ccccc1)c1ccccc1 | 3.9
CCCCOC(=O)c1ccc(N)cc1 | 2.87
Nc1cccc(S(N)(=O)=O)c1 | -0.38
Cc1ccc(NC(=O)c2ccccc2)c(O)c1 | 3.08
C1COCO1 | -0.37
COCOC | 0
CN(C)CCC(c1ccc(Cl)cc1)c1ccccn1 (centres undefined) | 3.38
CS(=O)(=O)c1ccc(C(=O)O)cc1 | 0.67
COC(=O)Cc1ccsc1 | 1.46
O=C(C=Cc1ccccc1)OCC=Cc1ccccc1 | 4.45
CC(C)(N)Cc1ccc(Cl)cc1 | 2.6
CN(C)C(=O)OCc1ccc(C#N)cc1 | 1.67
Sc1ccccc1 | 2.52
NC(=O)c1cc(N2CC2)c([N+](=O)[O-])cc1[N+](=O)[O-] | -0.02
CCCCCC1=Nc2cc(Cl)c(S(N)(=O)=O)cc2S(=O)(=O)N1 | 2.01
COc1cc2c(c(OC)c1OC)-c1ccc(N)c(=O)cc1[C@@H](NC(C)=O)CC2 | 0.3
O=C(O)c1ccc2c(c1)OCCOCCOCCOCCOCCO2 | -0.28
Nc1ccc2[nH]ccc2c1 | 0.7
c1ccc2c(c1)OCO2 | 2.08
O=C1OCc2c(Cl)c(Cl)c(Cl)c(Cl)c21 | 3.2

Structure (SMILES) | logP
CCCCCC1(CC)C(=O)NC(=O)NC1=O | 2.24
O=C(NO)Nc1ccccc1 | 0.41
c1cc2ccc3ccc4ccc5cccc6c(c1)c2c3c4c56 | 6.63
COC(=O)c1ccc[nH]1 | 1.17
O=P(O)(O)c1ccccc1 | 0.54
CC(O)CCC(=O)c1ccoc1 (centres undefined) | 0.84
c1ccc(-c2ccc(NCCN3CCOCC3)nn2)cc1 | 1.85
O=C1CCC(N2C(=O)c3ccccc3C2=O)C(=O)N1 (centres undefined) | 0.33
C=C1C(=O)OC2CC(C)C3C=CC(=O)C3(C)C(O)C12 (centres undefined) | 0.36
O=S(Cc1ccccc1)Cc1ccccc1 | 1.99
COc1cc(S(C)=O)ccc1-c1nc2ccncc2[nH]1 (centres undefined) | 1.25
CC(=O)OC1(C(=O)CO)CCC2C3CCC4=CC(=O)CCC4(C)C3C(=O)CC21C (centres undefined) | 2.45
CCOc1ccc([N+](=O)[O-])cc1 | 2.53
C/C=N/O | -0.13
c1ccc(C2CO2)cc1 (centres undefined) | 1.61
OC(c1ccccc1)c1ccccn1 (centres undefined) | 1.52
C=C(C)C(=O)OCCCC | 2.88
O=C(O)Cc1ccc(Cl)cc1 | 2.12
Cc1ccc(Cl)cc1C | 3.82
Nc1ccc(S(=O)(=O)Nc2ccccc2Cl)cc1 | 2
CN(C)c1ccc([N+](=O)[O-])cc1 | 2.27
Nc1nc(C=Cc2ccc([N+](=O)[O-])o2)no1 | 1.3
O=C(CN1CCCCC1)Nc1ccccc1Br | 2.94
COc1ccc(NC(=O)NC(=N)N)cc1 | 0.56

Structure (SMILES) | logP
CCNNC(=O)COc1ccccc1 | 1
O=C(NP(=O)(N1CC1)N1CC1)c1cccc(I)c1 | 1.91
CC(=O)OCC1=C(C(=O)O)N2C(=O)[C@@H](NC(=O)CC#N)[C@H]2SC1 | -0.45
CC(=O)Oc1cccc(C)c1 | 2.09
CN(C)N=Nc1ccccc1 | 2.59
CCC(O)CC | 1.21
CC(=O)OCC1CCC(n2cnc3c(=O)[nH]cnc32)O1 (centres undefined) | -0.9
CON(C)C(=O)Nc1cccc(C(F)(F)F)c1 | 2.64
CCCCC1CCCc2ncc(C(=O)OC)c(=O)n21 (centres undefined) | 1.77
O=C(NCC(O)CO)c1c(I)c(C(=O)NCC(O)CO)c(I)c(N(CCO)C(=O)CO)c1I (centres undefined) | -2.98
CCc1cc(-c2ccccc2)nnc1NCCN1CCOCC1 | 2.53
Nc1ccccc1F | 1.26
CC(C)CCO[N+](=O)[O-] | 2.84
NCC(=O)NCC(=O)O | -2.92
CCOc1cccc2cccnc12 | 2.25
CNC1=CC(=O)c2ccccc2C1=O | 1.74
Cc1cccc2c(C)cccc12 | 4.38
CCc1ccc(N)cc1 | 1.96
NCCc1cccnc1 | -0.11
COc1ccccc1-c1nc(N)nc(N)n1 | 0.58
Cc1cc2ccccc2cn1 | 2.68
CCCC1(CC)C(=O)NC(=O)NC1=O | 0.66
COc1cccc(S(I)=C(N(C)C)N(C)C)c1 (centres undefined) | -0.5
OCCO | -1.36

Structure (SMILES) | logP
CC(=O)Nc1ccc(Br)cc1 | 2.29
O=[N+]([O-])c1ccc(N2CCCCC2)cc1 | 3.26
CCOP(=S)(OCC)Oc1ccc(N)cc1 | 2.6
COC(=O)c1cc(Oc2ccc(Cl)cc2Cl)ccc1[N+](=O)[O-] | 4.48
Cc1cc(C)c(N(C)C)c(C)c1 | 4.41
CC(=O)Nc1c(C)cc(O)cc1C | 0.31
c1cncc(CN2CCOCC2)c1 | 0.04
c1ccc(N2CCCCC2)cc1 | 2.98
CCCCC(=O)O[C@]1(C(=O)CO)[C@@H](C)C[C@H]2[C@@H]3CCC4=CC(=O)C=C[C@]4(C)[C@@]3(F)[C@@H](O)C[C@@]21C | 3.6
O=C(O)C(c1ccc(-c2ccccc2)cc1)C(O)c1ccccc1F (centres undefined) | 3.77
O=C1CNC(=O)N1 | -1.69
CC(=O)ONc1ccnc2ccccc12 | 0.97
CC(=O)CC(C)=O | 0.4
O=C1CCCCC1 | 0.81
CCN(N=O)C(N)=O | 0.23
O=c1cnn(C2OC(CO)C(O)C2O)c(=O)[nH]1 (centres undefined) | -2.14
CCc1cccc(O)c1 | 2.4
O=C(O)c1cccc(F)c1 | 2.15
CN(C(N)=O)c1ccccc1 | 0.42
Oc1cccc(I)c1 | 2.93
